In PubChem BioAssay (NCI):
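Tested at 5 concentrations; 48 h exposure; 96-well plates; endpoints linearly interpolated, else capped at highest concentration. At the TGI there is no net growth.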

Columns and labels:
Experiment in all cases: NCI tumour cell line growth inhibition, 48 h
UO-31 renal = system: UO-31 renal
HT29 colon = system: HT29 colon
SF-295 CNS = system: SF-295 CNS
CCRF-CEM leukemia = system: CCRF-CEM leukemia
MDA-MB-435 = system: MDA-MB-435
ACHN renal = system: ACHN renal
UACC-257 melanoma = system: UACC-257 melanoma
HCT-15 colon = system: HCT-15 colon
HL-60(TB) leukemia = system: HL-60(TB) leukemia
NCI-H460 lung = system: NCI-H460 lung

## O=C(c1ccccc1)C1N=NCC1c1ccc([N+](=O)[O-])cc1 (stereo not given)
UO-31 renal
  TGI: > 100 µM
HT29 colon
  TGI: > 100 µM
SF-295 CNS
  TGI: > 100 µM
CCRF-CEM leukemia
  TGI: > 100 µM
MDA-MB-435
  TGI: > 100 µM
ACHN renal
  TGI: > 100 µM
UACC-257 melanoma
  TGI: 88.4 µM
HCT-15 colon
  TGI: > 100 µM
HL-60(TB) leukemia
  TGI: 67.3 µM
NCI-H460 lung
  TGI: > 100 µM
